Earlier results on one compound are cited in patent US20220401317A1, “HYPOCHLORITE COMPOSITION AND SYSTEM AND METHOD FOR PREPARING A HYPOCHLORITE COMPOSITION AND USE OF THE SAME” (KONINKLIJKE PHILIPS N.V., priority 2019, published 2022).

The structures appear in SMILES notation.

A word on the pKa: it is the negative logarithm of the acid dissociation constant. `OCl` [hypochloric acid]: the pKa is listed as 7.53.
